System: peptide-specific IgG in plasma of prostate cancer patients and healthy donors
Test: Detection of peptide-specific IgG in plasma by ELISA
Format: binding, human
Conditions: for IgG reactive to peptide in plasma: 1:100-diluted plasma
[1] = Prostate cancer patient 12, A11
[2] = Prostate cancer patient 20, A33
[3] = Prostate cancer patient 14, A33
[4] = Prostate cancer patient 17, A33
[5] = Prostate cancer patient 19, A33

Row | Sequence | IgG reactive to peptide in plasma, Total (positive/tested) (Healthy donors) | IgG reactive to peptide in plasma (Prostate cancer patient 4, A31) | IgG reactive to peptide in plasma (Prostate cancer patient 5, A31) | IgG reactive to peptide in plasma (Prostate cancer patient 6, A31) | IgG reactive to peptide in plasma [1] | IgG reactive to peptide in plasma [2] | IgG reactive to peptide in plasma, Total (positive/tested) (Prostate cancer patients) | IgG reactive to peptide in plasma [3] | IgG reactive to peptide in plasma (Prostate cancer patient 2, A31) | IgG reactive to peptide in plasma (Prostate cancer patient 8, A11) | IgG reactive to peptide in plasma (Prostate cancer patient 9, A11) | IgG reactive to peptide in plasma [4] | IgG reactive to peptide in plasma [5] | IgG reactive to peptide in plasma (Prostate cancer patient 16, A33) | IgG reactive to peptide in plasma (Prostate cancer patient 7, A11) | IgG reactive to peptide in plasma (Prostate cancer patient 10, A11) | IgG reactive to peptide in plasma (Prostate cancer patient 13, A11)
1 | DLVYVNYAR (PSMA 173-181) [PSMA-derived peptide] | 0/9 | + (IgG reactive to a corresponding peptide was judged to be positive when a difference of the optical density (OD) in a 1:100-diluted plasma was more than 100) | + (IgG reactive to a corresponding peptide was judged to be positive when a difference of the optical density (OD) in a 1:100-diluted plasma was more than 100) | + (IgG reactive to a corresponding peptide was judged to be positive when a difference of the optical density (OD) in a 1:100-diluted plasma was more than 100) | + (IgG reactive to a corresponding peptide was judged to be positive when a difference of the optical density (OD) in a 1:100-diluted plasma was more than 100) | + (IgG reactive to a corresponding peptide was judged to be positive when a difference of the optical density (OD) in a 1:100-diluted plasma was more than 100) | 5/20 | – | – | – | – | – | – | – | – | – | –
2 | EYFVEMYYR (PAP 324-332) [PAP-derived peptide] | 0/9 | – | – | – | – | – | 1/20 | + (IgG reactive to a corresponding peptide was judged to be positive when a difference of the optical density (OD) in a 1:100-diluted plasma was more than 100) | – | – | – | – | – | – | – | – | –
3 | FIDPLGLPDR (PSMA 675-684) [PSMA-derived peptide] | 0/9 | + (IgG reactive to a corresponding peptide was judged to be positive when a difference of the optical density (OD) in a 1:100-diluted plasma was more than 100) | + (IgG reactive to a corresponding peptide was judged to be positive when a difference of the optical density (OD) in a 1:100-diluted plasma was more than 100) | + (IgG reactive to a corresponding peptide was judged to be positive when a difference of the optical density (OD) in a 1:100-diluted plasma was more than 100) | + (IgG reactive to a corresponding peptide was judged to be positive when a difference of the optical density (OD) in a 1:100-diluted plasma was more than 100) | + (IgG reactive to a corresponding peptide was judged to be positive when a difference of the optical density (OD) in a 1:100-diluted plasma was more than 100) | 10/20 | – | + (IgG reactive to a corresponding peptide was judged to be positive when a difference of the optical density (OD) in a 1:100-diluted plasma was more than 100) | + (IgG reactive to a corresponding peptide was judged to be positive when a difference of the optical density (OD) in a 1:100-diluted plasma was more than 100) | + (IgG reactive to a corresponding peptide was judged to be positive when a difference of the optical density (OD) in a 1:100-diluted plasma was more than 100) | + (IgG reactive to a corresponding peptide was judged to be positive when a difference of the optical density (OD) in a 1:100-diluted plasma was more than 100) | + (IgG reactive to a corresponding peptide was judged to be positive when a difference of the optical density (OD) in a 1:100-diluted plasma was more than 100) | – | – | – | –
4 | FLLFFWLDR [PAP 20-28] | 0/9 | – | – | – | – | – | 1/20 | + (IgG reactive to a corresponding peptide was judged to be positive when a difference of the optical density (OD) in a 1:100-diluted plasma was more than 100) | – | – | – | – | – | – | – | – | –
5 | FQRLGIASGR (PSMA 525-534) [PSMA-derived peptide] | 0/9 | + (IgG reactive to a corresponding peptide was judged to be positive when a difference of the optical density (OD) in a 1:100-diluted plasma was more than 100) | + (IgG reactive to a corresponding peptide was judged to be positive when a difference of the optical density (OD) in a 1:100-diluted plasma was more than 100) | + (IgG reactive to a corresponding peptide was judged to be positive when a difference of the optical density (OD) in a 1:100-diluted plasma was more than 100) | + (IgG reactive to a corresponding peptide was judged to be positive when a difference of the optical density (OD) in a 1:100-diluted plasma was more than 100) | + (IgG reactive to a corresponding peptide was judged to be positive when a difference of the optical density (OD) in a 1:100-diluted plasma was more than 100) | 11/20 | – | + (IgG reactive to a corresponding peptide was judged to be positive when a difference of the optical density (OD) in a 1:100-diluted plasma was more than 100) | + (IgG reactive to a corresponding peptide was judged to be positive when a difference of the optical density (OD) in a 1:100-diluted plasma was more than 100) | + (IgG reactive to a corresponding peptide was judged to be positive when a difference of the optical density (OD) in a 1:100-diluted plasma was more than 100) | + (IgG reactive to a corresponding peptide was judged to be positive when a difference of the optical density (OD) in a 1:100-diluted plasma was more than 100) | + (IgG reactive to a corresponding peptide was judged to be positive when a difference of the optical density (OD) in a 1:100-diluted plasma was more than 100) | + (IgG reactive to a corresponding peptide was judged to be positive when a difference of the optical density (OD) in a 1:100-diluted plasma was more than 100) | – | – | –
6 | GLPDRPFYR [PSMA 680-688] | 0/9 | + (IgG reactive to a corresponding peptide was judged to be positive when a difference of the optical density (OD) in a 1:100-diluted plasma was more than 100) | – | + (IgG reactive to a corresponding peptide was judged to be positive when a difference of the optical density (OD) in a 1:100-diluted plasma was more than 100) | + (IgG reactive to a corresponding peptide was judged to be positive when a difference of the optical density (OD) in a 1:100-diluted plasma was more than 100) | + (IgG reactive to a corresponding peptide was judged to be positive when a difference of the optical density (OD) in a 1:100-diluted plasma was more than 100) | 12/20 | + (IgG reactive to a corresponding peptide was judged to be positive when a difference of the optical density (OD) in a 1:100-diluted plasma was more than 100) | + (IgG reactive to a corresponding peptide was judged to be positive when a difference of the optical density (OD) in a 1:100-diluted plasma was more than 100) | + (IgG reactive to a corresponding peptide was judged to be positive when a difference of the optical density (OD) in a 1:100-diluted plasma was more than 100) | + (IgG reactive to a corresponding peptide was judged to be positive when a difference of the optical density (OD) in a 1:100-diluted plasma was more than 100) | – | – | – | + (IgG reactive to a corresponding peptide was judged to be positive when a difference of the optical density (OD) in a 1:100-diluted plasma was more than 100) | + (IgG reactive to a corresponding peptide was judged to be positive when a difference of the optical density (OD) in a 1:100-diluted plasma was more than 100) | + (IgG reactive to a corresponding peptide was judged to be positive when a difference of the optical density (OD) in a 1:100-diluted plasma was more than 100)

— patent US20100184699A1, “Peptide Derived From Prostate-Related Protein As Cancer Vaccine Candidate For Prostate Cancer Patient Who Is Positive For Hla-A3 Super-Type Allele Molecule” (priority 2005, published 2010)
